Assay results from patent US20050038098A1, “Substituted dihydronaphthalene and isochroman compounds for the treatment of metabolic disorders, cancer and other diseases” (priority 2003, published 2005).

Key:
[1] = test system: carcinogen induced mammary tumors; experiment: Carcinogen induced mammary tumors in Sprague Dawley rats; assay type: in vivo, rat; settings: combination treatment with tamoxifen (800 μg/kg) compared to tamoxifen alone
Procedure: Procedure: Five week-old female Sprague Dawley rats (Harlan) were housed in a fixed 12-12-hr artificial light-dark cycle, and maintained on a standard rodent diet provided ad libitum. Animals were allowed two days to acclimate in this experimental environment prior to the initiation of the study.
To induce mammary tumors, the female […] were injected intraperitoneally with the carcinogen n-nitroso-n-methylurea, in a single dose of 50 mg/kg in acidified normal saline (pH4 w/acetic acid) at a final volume of 10 mg/ml (5 ml/kg). After eight weeks, mammary tumors are detected, and the tumor bearing females are sorted into treatment groups. Once sorted, the animals were housed four per cage and provided rodent diet ad libitum. All animals are treated with test compound or a vehicle for four weeks, during which time, changes in tumor size are monitored. Tumors were classified as regressing, static or progressing.
Treatment groups (n=8/group): • 1) Control (sesame oil) • 2) Tamoxifen (800 μg/kg) • 3) Compound 1 (10 mg/kg) • 4) Compound 1 (20 mg/kg) • 5) Compound 1 (50 mg/kg) • 6) Compound 1 (100 mg/kg) • 7) Compound 1 (20 mg/kg)+Tamox. (800 μg/kg) • 8) Compound 9 (75 mg/kg) • 9) Compound 11 (20 mg/kg) • 10) Compound 11 (20 mg/kg)+Tamox. (800 μg/kg) • 11) Compound 11 (50 mg/kg) […]

3T3-L1 pre-adipocytes = settings: comparative compound, stated as already shown; cited from earlier work
[2] = test system: THP-1 cells differentiated into macrophages (macrophage foam cells); experiment: Cholesterol efflux assay from macrophage foam cells; assay type: cell-based; settings: 1 μM final concentration, 10 μg/ml ApoA-I, 24 hr, vs non treated cells
Procedure: Cholesterol efflux from macrophage foam cells was assayed as described by Sparrow. et al, J. Biol. Chem., 2002, 277, 10021-10027, which is incorporated herein in its entirety by this reference. THP-1 cells obtained from ATCC (Manassas, VI), were cultured in RPMI medium (Sigma, St-Louis, Mo.), containing 10% fetal calf serum (Sigma, St-Louis, Mo.), […] 2-mercaptoethanol, 1 mM sodium pyruvate, 2 mM L-glutamine, 100 units/ml penicillin, […] streptomycin and 0.25 μg/ml amphotericin B obtained from Sigma (St-Louis, Mo.). The THP-1 cells were differentiated into macrophages in 24 well tissue culture dishes at a density of 0.5 million cells/well by incubation in the same medium plus 100 nM tetradecanoyl phorbol acetate (Sigma, St-Louis, Mo.), for 3 days.
After differentiation into macrophages, the cells were tested for cholesterol efflux as induced by Compound 11 of the invention. Cells were labeled by incubation for 24 hr in fresh growth medium containing [3H]-cholesterol (10 μCi/ml) (PerkinElmer, Boston, Mass.), and 50 μg/ml acetylated-LDL (Frederick, Md.) and 1% Fetal bovine serum (Sigma, St-Louis, Mo.). […] Media were briefly centrifuged to remove non-adherent cells, and then aliquots of both the supernatant and the dissolved cells were counted by liquid scintillation spectrometry to determine radioactivity.

In the case of Cc1cc2c(cc1-c1cc(/C=C3\SC(=O)NC3=O)ccc1OC(F)(F)F)C(C(C)C)=CCC2(C)C [Compound 1, 5[3-(8-Isopropyl-3,5,5-trimethyl-5,6-dihydro-naphthalen-2-yl)-4-trifluoromethoxy-benzylidene]-thiazolidine-2,4-dione], the “effect on mammary tumors in combination with tamoxifen” value [1] is reported as “unexpectedly improved and/or synergistic effects”.

In the case of Cc1cc2c(cc1-c1cc(/C=C3\SC(=O)NC3=O)ccc1OC(F)(F)F)C(C)(C)CCC2(C)C [Compound 41, 5-[3-(3,5,5,8,8-Pentamethyl-5,6,7,8-tetrahydro-naphthalen-2-yl)-4-trifluoromethoxy-benzylidene]-thiazolidine-2,4-dione], the “inducer of adipocyte differentiation” value (3T3-L1 pre-adipocytes) is listed as “potent inducer of adipocyte differentiation”.

For COc1c(F)cc(/C=C2\SC(=O)NC2=O)c(F)c1-c1cc2c(cc1C)C(C)(C)OCC2(C)C [Compound 11, 5-[2,5-Difluoro-4-methoxy-3-(1,1,4,4,7-pentamethyl-isochroman-6-yl)-benzylidene]-thiazolidine-2,4-dione], the cholesterol efflux [2] was “effective for inducing cholesterol efflux” and the cholesterol efflux ([2]; listed as compound 11) was “increases cholesterol efflux”.
